# Results reported in patent US8741911B2, “Raf inhibitor compounds” (Eli Lilly and Company, priority 2012, dated 2014).
# Like-named read-outs stand apart in the source and are kept apart here.
# How the values were obtained:
# SK-HEP-1 = experiment: CellTiter-Glo proliferation and viability assay; type: cell-based; conditions: Homo sapiens, SK-HEP1, read-out: Abs IC50
# M059K = experiment: CellTiter-Glo proliferation and viability assay; type: cell-based; conditions: Homo sapiens
# NCI-H2170 = experiment: CellTiter-Glo proliferation and viability assay; type: cell-based; conditions: Homo sapiens
# 786-0 = experiment: CellTiter-Glo proliferation and viability assay; type: cell-based; conditions: Homo sapiens
# NCI-H23 = experiment: CellTiter-Glo proliferation and viability assay; type: cell-based; conditions: Homo sapiens
# NCI-H2081 = experiment: CellTiter-Glo proliferation and viability assay; type: cell-based; conditions: Homo sapiens
# A-Raf (WT) = target: T1, A-Raf (WT) (Homo sapiens, UniProt P10398); experiment: ActivX KiNativ A375 whole cell lysate assay; type: binding
# T1 construct: Measurement of Raf Kinase Activities with Native Whole Enzymes Using KiNativ Assay; host or cells: A375 human melanoma cells, whole cell lysate
# T1 sequence (P10398 1-606): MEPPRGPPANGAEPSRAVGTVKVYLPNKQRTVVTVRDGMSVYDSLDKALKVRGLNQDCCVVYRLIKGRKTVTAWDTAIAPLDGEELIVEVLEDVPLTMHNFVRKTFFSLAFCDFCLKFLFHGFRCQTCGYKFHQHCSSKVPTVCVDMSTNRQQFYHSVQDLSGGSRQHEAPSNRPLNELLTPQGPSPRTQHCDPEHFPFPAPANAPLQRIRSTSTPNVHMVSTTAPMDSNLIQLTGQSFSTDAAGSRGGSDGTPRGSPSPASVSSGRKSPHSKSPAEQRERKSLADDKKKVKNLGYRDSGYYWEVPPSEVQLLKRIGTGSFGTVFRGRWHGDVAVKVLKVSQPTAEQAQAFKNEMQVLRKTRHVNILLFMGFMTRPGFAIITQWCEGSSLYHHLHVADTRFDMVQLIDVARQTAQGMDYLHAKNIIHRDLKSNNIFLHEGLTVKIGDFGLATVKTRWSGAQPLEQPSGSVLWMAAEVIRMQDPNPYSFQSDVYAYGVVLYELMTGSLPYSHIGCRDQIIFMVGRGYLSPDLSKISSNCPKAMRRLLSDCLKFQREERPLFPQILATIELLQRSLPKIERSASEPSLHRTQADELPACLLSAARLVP
# NCI-H1975 = experiment: CellTiter-Glo proliferation and viability assay; type: cell-based; conditions: Homo sapiens
# Ba/F3 c-Kit T670I = experiment: Ba/F3 c-Kit anti-proliferation assay; type: cell-based; conditions: Mus musculus, BaF3, Ba/F3 c-Kit T670I, read-out: Anti-proliferation activities (IC50)
# Description: (§1) To further evaluate the test compound, it is tested against c-Kit mutations commonly occurring in melanoma and/or GIST. Ba/F3 cell line (from ATCC) are transfected with wild type (WT) c-Kit, c-Kit L576P (Willmore-Payne et al, Human Pathology, 2005, 36(5), 486; Willmore-Payne et al, Human Pathology, 2006, 37, 520), c-Kit K642E (Willmore et al, Am J Clin Pathol, 2004, 122(2), 206; Monsel et al, Oncogene, 2010, 29, 227), c-Kit T670I (Tamborini et al, Oncogene, 2006, 25, 6140), or c-Kit V654A (Tamborini et al, Oncogene, 2006, 25, 6140), respectively are established by retroviral transfection methods well known and used by those skilled in the art. The mutations are generated by polymerase chain reaction (PCR) mutagenesis and confirmed by automated sequencing of the PCR-amplified c-Kit expression construct. Ba/F3 stable cell lines are generated by transfecting with plasmid DNA. Expression of the appropriate c-Kit mutants is confirmed by Western blot analysis.
# (§2) Wild type Ba/F3 cells are generally dependent on IL-3 for growth. After c-Kit transfection, these cells are grown in Ba/F3 ATCC recommended growth medium in the presence of stem cell factor (SCF), the ligand of c-Kit. The anti-proliferation activities of test compounds against these cells are tested in the presence of IL-3 or SCF.
# Ba/F3 c-Kit L576P = experiment: Ba/F3 c-Kit anti-proliferation assay; type: cell-based; conditions: Mus musculus, BaF3, Ba/F3 c-Kit L576P, read-out: Anti-proliferation activities (IC50)
# Description: as §1, §2
# Ba/F3 c-Kit V654A = experiment: Ba/F3 c-Kit anti-proliferation assay; type: cell-based; conditions: Mus musculus, BaF3, Ba/F3 c-Kit V654A, read-out: Anti-proliferation activities (IC50)
# Description: as §1, §2
# Ba/F3 c-Kit K642E = experiment: Ba/F3 c-Kit anti-proliferation assay; type: cell-based; conditions: Mus musculus, BaF3, Ba/F3 c-Kit K642E, read-out: Anti-proliferation activities (IC50)
# Description: as §1, §2
# Ba/F3 c-Kit WT = experiment: Ba/F3 c-Kit anti-proliferation assay; type: cell-based; conditions: Mus musculus, BaF3, Ba/F3 c-Kit WT, read-out: Anti-proliferation activities (IC50)
# Description: as §1, §2
# Bioavailability = conditions: in vivo
compound,measurement,setting,value
"CNc1ncc2cc(-c3cc(NC(=O)NCCC(C)(C)C)c(F)cc3C)c(C)nc2n1 [Example 1, 1-(3,3-Dimethylbutyl)-3-(2-fluoro-4-methyl-5-(7-methyl-2-(methylamino)pyrido[2,3-d]pyrimidin-6-yl)phenyl)urea]",IC50,SK-HEP-1,0.00196 µM
same,IC50,M059K; read-out: Abs IC50,0.0151 µM
same,IC50,M059K; read-out: Rel IC50,0.00101 µM
same,IC50,NCI-H2170; read-out: Abs IC50,0.0151 µM
same,IC50,NCI-H2170; read-out: Rel IC50,0.0199 µM
same,IC50,786-0; read-out: Abs IC50,> 0.02 µM
same,IC50,786-0; read-out: Rel IC50,0.00458 µM
same,IC50,NCI-H23; read-out: Abs IC50,0.00627 µM
same,IC50,NCI-H23; read-out: Rel IC50,0.00069 µM
same,IC50,NCI-H2081; read-out: Abs IC50,> 0.02 µM
same,IC50,NCI-H2081; read-out: Rel IC50,> 0.02 µM
same,inhibition at 0.001 µM,A-Raf (WT); 1 nM,4.3%
same,inhibition at 0.01 µM,A-Raf (WT); 10 nM,13.4%
same,inhibition at 0.1 µM,A-Raf (WT); 100 nM,53.6%
same,inhibition at 1 µM,A-Raf (WT); 1000 nM,72%
same,IC50,NCI-H1975; read-out: Abs IC50,0.00093 µM
same,IC50,NCI-H1975; read-out: Rel IC50,0.00069 µM
same,IC50,Ba/F3 c-Kit T670I; IL-3,5.92 µM
same,IC50,Ba/F3 c-Kit T670I; SCF,0.29 µM
same,IC50,Ba/F3 c-Kit L576P; IL-3,2.08 µM
same,IC50,Ba/F3 c-Kit L576P; SCF,0.179 µM
same,IC50,Ba/F3 c-Kit V654A; IL-3,2.94 µM
same,IC50,Ba/F3 c-Kit V654A; SCF,0.086 µM
same,IC50,Ba/F3 c-Kit K642E; IL-3,1.2 µM
same,IC50,Ba/F3 c-Kit K642E; SCF,0.047 µM
same,IC50,Ba/F3 c-Kit WT; IL-3,2.86 µM
same,IC50,Ba/F3 c-Kit WT; SCF,0.062 µM
same,bioavailability,Bioavailability,low
